Measured values reported in ChEMBL document CHEMBL1201862, “PubChem BioAssay data set” (2004).
Several values for one entry are separate records, joined by “and”; a condition that tells them apart may be missing. Identical values can stand only once.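 Five compound concentrations were applied to cells in 96-well plates for 48 hours; endpoints were derived by simple linear interpolation of the resulting dose-response curve. GI50: concentration for 50% inhibition of growth.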 Activity calls are given as the source filed them. Rule as the data show it: active = GI50 up to about 1.1 µM and inactive = higher.

Experiments:
Assay in all cases: NCI anticancer screen, dose series, 48 h
[1] = test system: CAKI-1
[2] = test system: MOLT-4
[3] = test system: HOP-92
[4] = test system: SK-MEL-2
[5] = test system: SNB-75
[6] = test system: NCI-H460
[7] = test system: SF-539
[8] = test system: HCC 2998
[9] = test system: SK-MEL-28
[10] = test system: SK-MEL-5
[11] = test system: 786-0
[12] = test system: KM12
[13] = test system: SNB-19
[14] = test system: RPMI-8226
[15] = test system: HCT-15
[16] = test system: SR
[17] = test system: DU-145
[18] = test system: PC-3
[19] = test system: MDA-N
[20] = test system: MDA-MB-231

Measured: GI50

CN(C)c1ccc(/C=C2\C=Cc3ccccc32)cc1
34.6 µM: [15]
inactive: [1] 78 µM | [2] 32.1 µM | [3] 44.5 µM | [4] 90.6 µM | [5] 11.3 µM | [6] 39.4 µM | [7] 50.7 µM | [8] 78 µM | [9] 43.6 µM | [10] 36.3 µM | [11] 61 µM | [12] 49.7 µM | [13] 59.2 µM | [14] 35.3 µM | [16] 32.4 µM

CCOC(=O)NC(=O)c1cn(CCCOC(=O)CCCCCCCCC(=O)OCCCn2cc(C(=O)NC(=O)OCC)c(=O)n(C)c2=O)c(=O)n(C)c1=O
> 100 µM: [15]
inactive: [1] > 69 µM | [2] > 100 µM | [3] > 59 µM | [4] 97.1 µM | [5] > 48.2 µM | [6] > 100 µM | [7] > 68.7 µM | [17] > 100 µM | [8] > 100 µM | [9] > 100 µM | [10] > 100 µM | [18] > 100 µM | [11] > 76.6 µM | [12] > 100 µM | [13] 67 µM | [19] > 100 µM | [14] > 100 µM | [16] > 100 µM

CCN(CC)c1nc(N(C)C)c2ccccc2n1
inactive: [1] 58.9 µM | [2] 7.66 µM | [3] 43.3 µM | [4] 30.1 µM | [5] 34.8 µM | [6] 25.4 µM | [7] 24.3 µM | [8] 15.3 µM | [9] 31.8 µM | [10] 15.1 µM | [18] 26.4 µM | [20] 72.4 µM | [11] 27.9 µM | [12] 31.3 µM | [13] 39.9 µM | [19] 16.5 µM | [14] 13.2 µM | [16] 7.78 µM
33.3 µM: [15]

C[C@H](CCCOS(C)(=O)=O)[C@H]1CC[C@H]2[C@@H]3CC[C@@H]4C[C@H](OS(C)(=O)=O)CC[C@]4(C)[C@H]3CC[C@]12C
inactive: [1] 11.6 µM | [2] > 100 µM | [4] 60.1 µM | [5] 31.8 µM | [6] 30.5 µM | [7] 21 µM | [17] 27 µM | [9] > 100 µM | [10] 29.8 µM | [18] 20.6 µM | [20] 13.8 µM | [11] 31 µM | [12] 29.2 µM | [13] 27.5 µM | [14] 17.1 µM | [16] 19.2 µM
66.8 µM: [15]
active: [3] 0.118 µM

CC(=O)Nc1oc(C)c(C)c1S(=O)(=O)c1ccc(Cl)cc1
41.8 µM: [15]
inactive: [2] 39.4 µM | [3] > 100 µM | [4] 28.4 µM | [5] 34.4 µM | [6] 35.7 µM | [7] 26.7 µM | [17] 85.3 µM | [8] 41.3 µM | [9] 95.3 µM | [10] 27.8 µM | [18] 22.1 µM | [11] 98.9 µM | [12] 39.4 µM | [13] > 100 µM | [14] 35.6 µM | [16] 51.5 µM

N#Cc1ccc(Nc2cnc3cc(N)ccc3n2)cc1
inactive: [1] 66.5 µM | [2] 41.7 µM | [3] 54.5 µM | [4] > 100 µM | [5] > 100 µM | [6] 58.1 µM | [7] > 100 µM | [8] > 100 µM | [9] > 100 µM | [10] > 100 µM | [11] 85.1 µM | [12] > 100 µM | [13] 71.4 µM | [14] 42.7 µM | [16] 44.4 µM
> 100 µM: [15]

COc1cc(-c2c(C(C)=O)c(-c3ccccc3)n(C3OC(COC(C)=O)C(OC(C)=O)C(OC(C)=O)C3OC(C)=O)c(=S)c2C#N)ccc1O (configuration not stated)
> 100 µM: [15]
inactive: [1] > 100 µM | [2] 58.9 µM and 60.1 µM | [3] 36.6 µM | [6] 75.5 µM | [17] 55.3 µM and 58.1 µM | [9] > 100 µM | [10] 37.2 µM and 72.4 µM | [18] 46.8 µM and 65.6 µM | [11] > 100 µM | [12] 71.6 µM and 89.5 µM | [13] > 100 µM | [19] 33 µM and 49.8 µM | [16] > 100 µM

N=C(NNS(=O)(=O)c1ccccc1)Oc1ccc(Br)cc1Br
> 100 µM: [15]
inactive: [1] > 100 µM | [2] > 100 µM | [3] 44.8 µM | [4] > 100 µM | [5] 94.2 µM | [6] > 100 µM | [7] > 100 µM | [8] > 100 µM | [9] > 100 µM | [10] > 100 µM | [11] 41.3 µM | [12] > 100 µM | [13] > 100 µM | [14] 57.8 µM | [16] > 100 µM

CCOC(OCC)C(CCc1ccccc1)c1c(N)nc(N)[nH]c1=O (configuration not stated)
68.7 µM: [15]
inactive: [1] 34.9 µM | [2] 34.3 µM | [3] 29.6 µM | [4] 53 µM | [5] > 100 µM | [6] 56.8 µM | [7] > 100 µM | [17] 83.9 µM | [8] 26.1 µM | [9] > 100 µM | [10] 47.6 µM | [18] 39.3 µM | [20] > 100 µM | [11] 89.7 µM | [12] 66.4 µM | [13] > 100 µM | [14] 38.6 µM | [16] 32.4 µM

COc1cccc(-c2c(-c3ccccc3)[nH]c(C)c2C(=O)ONC(=O)c2ccccc2)c1
inactive: [1] 3.18 µM | [2] 4.24 µM | [3] 1.83 µM | [4] 10.4 µM | [5] 5.86 µM | [6] 3.19 µM | [7] 6.76 µM | [17] 2.59 µM | [8] 14.4 µM | [9] 14.7 µM | [10] 9.93 µM | [18] 11.6 µM | [20] 9.55 µM | [11] 4.44 µM | [12] 13.7 µM | [13] 7.89 µM | [14] 6.28 µM | [16] 2.07 µM
12.1 µM: [15]

C/C(=N\NC(=N)N)C(CN1CCOCC1)C(c1ccccc1)c1c(O)c2ccccc2oc1=O (configuration not stated)
inactive: [1] > 100 µM | [2] 66.2 µM | [3] 25.7 µM | [4] > 100 µM | [5] 24.9 µM | [6] > 100 µM | [7] 77.6 µM | [8] > 100 µM | [9] > 100 µM | [10] > 100 µM | [11] > 100 µM | [12] > 100 µM | [13] > 100 µM | [14] 85.9 µM | [16] 80 µM
> 100 µM: [15]

Cc1ccc(S(=O)(=O)CC2(Br)CCc3ccccc3C2=O)cc1 (configuration not stated)
19.8 µM: [15]
inactive: [1] 24.5 µM | [2] 2.86 µM | [3] 34.4 µM | [4] 21.4 µM | [5] 29.9 µM | [6] > 100 µM | [7] 33.7 µM | [17] 74.8 µM | [9] 17.2 µM | [10] 17.6 µM | [18] 42.4 µM | [20] 28 µM | [11] 42.9 µM | [12] 41 µM | [13] 41.9 µM | [14] 38.1 µM | [16] 1.38 µM

Nc1cc(C2CCCc3c2[nH]c2ccccc32)ccc1O (configuration not stated)
active: [14] 0.271 µM
55.3 µM: [15]
inactive: [1] 25.2 µM | [2] 4.79 µM | [3] 56.8 µM | [4] 31.9 µM | [5] 52 µM | [6] > 100 µM | [7] > 100 µM | [17] 26 µM | [8] 64.7 µM | [9] > 100 µM | [10] 6 µM | [18] 38.5 µM | [20] 84.5 µM | [11] 15.3 µM | [12] 20.1 µM | [13] > 100 µM | [16] 4.48 µM

NN/C(=N\S(=O)(=O)c1ccc(-c2ccccn2)s1)Nc1ccc(Cl)cc1
inactive: [1] 58.6 µM | [2] 32.7 µM | [3] 68.5 µM | [4] > 100 µM | [5] 25.6 µM | [6] > 100 µM | [7] 38.9 µM | [17] > 100 µM | [9] > 100 µM | [10] > 100 µM | [18] > 100 µM | [20] > 100 µM | [11] 29.2 µM | [12] > 100 µM | [13] 42.1 µM | [19] > 100 µM | [14] > 100 µM
> 100 µM: [15]

O=C1OCC2OC(=O)c3cc(O)c(O)c(O)c3-c3c(O)c(O)c(O)c4c3C(=O)OC(C2OC(=O)c2cc(O)c(O)c(O)c2-c2c1cc(O)c(O)c2O)C1OC(=O)C2C4=C(O)C(=O)C23Oc2cc(O)c4c(c2[C@H]13)O[C@H](c1ccc(O)c(O)c1)[C@@H](O)C4 (some centres not stated)
inactive: [1] 16.2 µM | [2] 22.6 µM | [3] 25.9 µM | [4] 20.2 µM | [5] 28.4 µM | [6] 20.5 µM | [17] 30.9 µM | [8] 25.2 µM | [9] 66.7 µM | [10] 16 µM | [18] 38.5 µM | [20] 18.9 µM | [11] 21.4 µM | [12] 24.8 µM | [13] 41.4 µM | [14] 24.5 µM | [16] 27.5 µM
18.4 µM: [15]
